Calls of active or inactive are those of the source. Cut-off read from the data, not from the text of the source, for most assays here: actives have a measured EC50 and inactives only a lower limit. Some results are limits rather than exact numbers.

Tested on in the first experiment: not listed separately
Put plainly: cytotoxicity toward NIH3T3 fibroblasts, dose response, counter-screen, cell-based, ATP luminescence, mouse fibroblasts (AID 2010).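 Note: cells exposed to compound for about 90 hours before reading.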 Format: functional. Background: The purpose of a counterscreen is to sort out artefacts and off-target activity.
As for `O=C1CN(c2nc(-c3cccnc3)nc3scc(-c4ccccc4)c23)CCN1`, the EC50 – broadly, the concentration at which the effect is half-maximal – is 59.3 µM (active).
In the case of `CC1=CC(=C(C#N)c2nc3ccccc3s2)C=C(C)N1Cc1ccco1`, the EC50 is > 30 µM (not active).
Regarding `COc1cccc(NC(=S)N2CCn3cccc3C2c2cccnc2)c1` (stereo not drawn), the EC50 was > 60 µM (not active).
Consider `O=C(CN1C(=O)COc2ccccc21)N(Cc1cccnc1)Cc1cccc(F)c1`, for which the concentration giving a half-maximal response (EC50) is reported as > 60 µM (not active).
Consider `Cc1ccc(C)c(N2CCN(CC(=O)Nc3ccc([N+](=O)[O-])cc3C(=O)Nc3ccccc3F)CC2)c1`, for which the EC50 is recorded as > 60 µM (not active).
As to `COCC1CCCCN1Cc1c[nH]nc1-c1ccc2cc(OC)ccc2c1` (stereo not drawn), the EC50 was > 60 µM (not active).
In the case of `N#Cc1c(C(F)(F)F)cc(-c2ccco2)nc1SCc1ccncc1`, the EC50 was 4.74 µM (active).
Regarding `O=[N+]([O-])c1nn(-c2ccccc2)[n+]([O-])c1NCCc1ccccc1`, the EC50 was > 60 µM (inconclusive).
Still for that read-out and setting: with `O=C(CCCn1cnc([N+](=O)[O-])n1)Nc1ccc(Cl)cc1Cl` the figure was > 60 µM (inconclusive).
For the molecule `CCOC(=O)c1c(NC(=O)C2=C(C)N=C(S)NC2c2ccccc2C(F)(F)F)sc(C)c1C` (stereo not drawn), the EC50 is listed as > 60 µM (not active).
The same measure, in the same setting: with `Cc1cc(C)c(S(=O)(=O)c2ccc(F)cc2C)c(Cl)n1` the figure was > 60 µM (not active); with `CCN(CC)CCN(C(=O)c1ccc(S(=O)(=O)N(C)C2CCCCC2)cc1)c1nc2ccc(OC)cc2s1`, > 60 µM (not active).
Regarding `CCOc1ccc(N(CC(=O)NCCC2=CCCCC2)S(=O)(=O)c2ccccc2)cc1`, the EC50 is 10.6 µM (active).
Consider `Cc1ccc2c(c1)N(CC(=O)N1CCCCC1c1cccnc1)C(=O)CO2` (stereo not drawn), for which the EC50 is > 60 µM (not active).
As to `CCN(C(=O)c1cc2c(O)nc3ccc(C)cc3c2s1)c1cccc(C)c1`, the EC50 is > 60 µM (inconclusive).
The same measure, in the same setting: then `FC(F)(F)c1cccc(CN2CCC(c3cc(-c4cccs4)[nH]n3)CC2)c1`, with 14.6 µM (active); and `COc1ccc(Cn2c(-c3ccc(Br)cc3)c[n+]3ccccc23)cc1`, with > 30 µM (not active).

The target of a further experiment is Cytochrome P450 2C9 (Homo sapiens, UniProt P11712).
Sequence of Cytochrome P450 2C9 (P11712 whole entry): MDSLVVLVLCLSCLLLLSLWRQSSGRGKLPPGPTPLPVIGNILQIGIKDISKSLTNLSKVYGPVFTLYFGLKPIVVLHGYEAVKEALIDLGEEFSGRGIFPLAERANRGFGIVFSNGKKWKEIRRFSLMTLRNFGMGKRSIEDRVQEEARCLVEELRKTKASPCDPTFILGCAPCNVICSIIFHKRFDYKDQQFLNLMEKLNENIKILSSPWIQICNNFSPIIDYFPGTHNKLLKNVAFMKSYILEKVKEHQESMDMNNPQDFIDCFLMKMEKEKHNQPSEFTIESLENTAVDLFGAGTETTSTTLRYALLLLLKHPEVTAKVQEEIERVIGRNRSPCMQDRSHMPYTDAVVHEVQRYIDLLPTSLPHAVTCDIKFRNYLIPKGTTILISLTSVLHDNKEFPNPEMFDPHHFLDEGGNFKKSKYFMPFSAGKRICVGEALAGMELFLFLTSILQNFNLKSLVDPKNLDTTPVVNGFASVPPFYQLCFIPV
On to `CCS(=O)(=O)c1ccc2c(c1)N(S(=O)(=O)c1ccccc1)CC(C(=O)O)O2` (stereo not drawn), for which the half-maximal activity concentration (AC50) – broadly, the concentration at which the activity in the assay is half-maximal – was 12.6 µM (inconclusive).
`CCC(=O)Nc1ccc(C(=O)CSc2nnc(-c3ccc(O)cc3)n2CC2CCCO2)cc1OC` (stereo not drawn): the AC50 is 15.8 µM (inconclusive).
Consider `c1ccc(-c2nc3ccccc3o2)nc1`, for which the half-maximal activity concentration (AC50) is 39.8 µM (inconclusive).
Still for that read-out and setting: with `CCN1C(=O)C(CC(=O)Nc2ccc(OC)cc2)N(Cc2cccnc2)C1=S` (stereo not drawn) the figure was 10 µM (inconclusive); with `Cc1ccc(-n2nnnc2Sc2nc([N+](=O)[O-])nn2C)cc1C`, 1.58 µM (inconclusive).
Still for that read-out and setting: then `Fc1ccc(CN(C2=NCCN2)c2c(Cl)cccc2Cl)cc1`, with 39.8 µM (inconclusive).
`Cc1cc2nc(SCCOC(=O)Nc3ccc(Cl)cc3)nc(C)c2cc1C`: the AC50 is 2.82 µM (inconclusive).
For the molecule `CSc1nsc(SC)c1C(=O)Nc1ccc(C)cc1`, the AC50 was 15.8 µM (inconclusive).
Take `Cc1cc(C(C)(C)C)cc(CNC2CCCCC2)c1O`: the AC50 was 7.94 µM (inconclusive).

Tested on in a further experiment: not listed separately
Put plainly: inhibitors of intracellular T. cruzi replication, confirmation, NIH3T3 host cells, beta-gal luminescence (AID 2044).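 Note: intracellular parasites grown in NIH/3T3 mouse fibroblasts as host cells; luminescent beta-galactosidase reporter signal from transgenic T. cruzi replicating inside host cells; inhibitors lower the luminescence signal.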 Format: functional, cell-based.
Consider `O=C1CN(c2nc(-c3cccnc3)nc3scc(-c4ccccc4)c23)CCN1`, for which the EC50 is 4.67 µM (active).
In the case of `CC1=CC(=C(C#N)c2nc3ccccc3s2)C=C(C)N1Cc1ccco1`, the EC50 was 1.75 µM (active).
Same read-out and setting: then `COc1cccc(NC(=S)N2CCn3cccc3C2c2cccnc2)c1` (stereo not drawn), with 1.12 µM (active).
In the case of `O=C(CN1C(=O)COc2ccccc21)N(Cc1cccnc1)Cc1cccc(F)c1`, the EC50 was 0.557 µM (active).
Turning to `Cc1ccc(C)c(N2CCN(CC(=O)Nc3ccc([N+](=O)[O-])cc3C(=O)Nc3ccccc3F)CC2)c1`, the concentration giving a half-maximal response (EC50) is 1.19 µM (active).
Turning to `COCC1CCCCN1Cc1c[nH]nc1-c1ccc2cc(OC)ccc2c1` (stereo not drawn), the half-maximal effective concentration (EC50) was 0.679 µM (active).
On to `N#Cc1c(C(F)(F)F)cc(-c2ccco2)nc1SCc1ccncc1`, for which the EC50 was 0.975 µM (active).
`O=[N+]([O-])c1nn(-c2ccccc2)[n+]([O-])c1NCCc1ccccc1`: the EC50 is 0.478 µM (active).
Take `O=C(CCCn1cnc([N+](=O)[O-])n1)Nc1ccc(Cl)cc1Cl`: the EC50 is 0.132 µM (active).
Turning to `CCOC(=O)c1c(NC(=O)C2=C(C)N=C(S)NC2c2ccccc2C(F)(F)F)sc(C)c1C` (stereo not drawn), the EC50 was 2.4 µM (active).
Still for that read-out and setting: with `Cc1cc(C)c(S(=O)(=O)c2ccc(F)cc2C)c(Cl)n1` the figure was 0.867 µM (active); with `CCN(CC)CCN(C(=O)c1ccc(S(=O)(=O)N(C)C2CCCCC2)cc1)c1nc2ccc(OC)cc2s1`, 0.105 µM (active).
On to `CCOc1ccc(N(CC(=O)NCCC2=CCCCC2)S(=O)(=O)c2ccccc2)cc1`, for which the EC50 is 2.58 µM (active).
As for `Cc1ccc2c(c1)N(CC(=O)N1CCCCC1c1cccnc1)C(=O)CO2` (stereo not drawn), the EC50 was 0.482 µM (active).
`CCN(C(=O)c1cc2c(O)nc3ccc(C)cc3c2s1)c1cccc(C)c1`: the EC50 was 0.708 µM (active).
The same measure, in the same setting: then `FC(F)(F)c1cccc(CN2CCC(c3cc(-c4cccs4)[nH]n3)CC2)c1`, with 2.31 µM (active); and `COc1ccc(Cn2c(-c3ccc(Br)cc3)c[n+]3ccccc23)cc1`, with 0.822 µM (active).
